Results published in patent US6589961B2, “9-alkylamino-1-nitroacridine derivatives” (New York Medical College, priority 2000, dated 2003).
“And” between values parts separate entries of the source, which are not always exact repeats. Identical values can stand only once.

Assays:
Type in all cases: in vivo
[1] = system: ascites adenocarcinoma Walker 256; test: Antitumor activity against ascites adenocarcinoma Walker 256 in rats (survival); settings: Wistar rats; for Optimal dose: dose giving the highest antitumor activity, i.p. on days 3, 4 and 5 after tumor transplantation, five doses tested; for Antitumor activity against Walker256 (Survival) Test/Control: mean survival time of test group vs control at the optimal dose, i.p. on days 3, 4 and 5
Method: Tumors are transplanted weekly into Wistar rats by intraperitoneal inoculation of 10^6 tumor cells. In the experiments, Walker carcinosarcoma 256 cells are transplanted on day 0 in Wistar rats weighing 75-100 g. by i.p. injection of 10^6 cells per animal. Each acridine is administered i.p. on days 3, 4, and 5 after tumor transplantation. Five rats are in each group at a given drug dose level and a group of 10 rats served as control for all test groups. […] Each acridine is tested at five different doses. The activity of the drug T/C (%) is expressed as % increase in mean survival time (in days) of test group (T) to the mean survival time (in days) of the control (C). Usually, the antitumor activity is presented only for the optimal dose (O.D. mg/kg/day) of tested compounds, at which the highest antitumor activity is observed.

[2] = system: Dunning G cells; test: Antitumor activity in Dunning G induced tumors in Copenhagen rats; settings: two weeks after treatment withdrawal
Method: Four to five week old Copenhagen rats are purchased from Harlan Sprague Dawley, Indianapolis, Ind., and allowed to acclimate for one week, feeding on Purina 5001 rat chow. At the end of one week, the rats are randomized into different experimental groups. Body weights of the animals measured twice a week.
Live Dunning G cells (one million/rat) are injected subcutaneously in all animals to induce tumors. Dunning G cells are non-metastatic tumor producing prostate cancer cells derived from spontaneous tumors from Copenhagen rats. Dunning G and MAT-LyLu cells (Yedavelli et al, 1999, Int. J. Mol. Med. 4:243-248) are grown in RPMI 1640 containing 10% fetal bovine serum (FBS) supplemented with penicillin (50 IU/mL), streptomycin (50 μg/mL), 2 mM L-glutamine and 2.5 mM dexamethasone. Cells are fed twice a week and are trypsinized with 0.05% trypsin-EDTA at 70-80 percent cell confluency.
Animals are injected i.p twice a week with 9-(2′-hydroxyethylamino)-4-methyl-1-nitroacridine (0.8 or 1.0 mg/Kg body weight) 1-nitro-9-hydroxyethylaminoacridine (0.6 mg/Kg body weight) twice a week for three weeks. Injections are started on day 25 for animals injected with Dunning G cells when tumors are palpable (0.5 cm). All animals are housed in hanging cages with three/four animals per cage and had ad libitum access to food and drinking water and are kept on twelve hour diurnal cycle. All injections and tumor measurements are performed under light anesthesia (metofane inhalation). Experimental end point measurements include body weight, tumor incidence. The experiment is terminated when the tumor size in the control animals is 3 cms diameter. Sacrifice of the animals is done by carbon dioxide asphyxiation.
Stock solution of 9-(2′-hydroxyethylamino)-4-methyl-1-nitroacridine is made in dimethylsulfoxide at 0.16 mg/ml. All drugs for injection in animals are diluted in PBS such that the total volume injected is between 0.1 to 0.2 mL. Stock solution of 1-nitro-9-hydroxyethylaminoacridine is made in dimethylsulfoxide at 0.12 mg/ml.

[3] = system: TSU cells; test: Antitumor activity on human prostate tumor (TSU) xenografts in nude mice; settings: Balb c/nu/nu mice
Method: Tumors are induced in six week old Balb c/nu/nu mice which are allowed to acclimate for two weeks by subcutaneous injection of 2×10^6 TSU cells per mouse. TSU cells are human prostate cancer cells (Iizumi et al., 1987, J. Urol. 137:1304-1306). TSU cells are grown in RPMI-1640 medium supplemented with 10% fetal bovine serum and the antibiotics penicillin (50 IU/ml), streptomycin (50 μg/ml) and 2 mM L-glutamine. Cells are fed with fresh media twice a week and are trypsinized using 0.05% trypsin-EDTA. Cells used for injection are always in the log phase of their growth (70-80%) confluent flask and cell viability is checked by trypan-blue exclusion test prior to injection. Only cells >95% […] are used.
Tumors are palpable in the mice by day 7 when treatment with the two drugs, mitoxantrone (0.6 mg/kg) and 9-(2′-hydroxyethylamino)-4-methyl-1-nitroacridine (0.8 mg/kg) is initiated. Treatment is continued twice weekly for three weeks. Mice are lightly anesthetized and tumors are measured and are weighed weekly. The stock concentrations of the drug are 0.12 mg/ml in PBS for mitoxantrone and 0.16 mg/ml in dimethylsulfoxide (DMSO) for 9-(2′-hydroxyethylamino)-4-methyl-1-nitroacridine. Mice are housed 5 animals/cage.

## 9-(4′-hydroxypropylamino)-7-methoxy-4-methyl-1-nitroacridine
[1]
  Optimal dose: 8 mg/kg
  Antitumor activity against Walker256 (Survival) Test/Control: 183%

## Cc1ccc([N+](=O)[O-])c2c(NCCO)c3ccccc3nc12 [9-(2′-hydroxyethylamino)-4-methyl-1-nitroacridine]
[1]
  Optimal dose: 4 mg/kg
  Antitumor activity against Walker256 (Survival) Test/Control: 217%
[2]; 0.8 mg/kg i.p. twice a week for three weeks
  reduction of tumors: 65%
[2]; 1.0 mg/kg i.p. twice a week for three weeks
  reduction of tumors: 75%
[3]; 0.8 mg/kg twice weekly for three weeks from day 7, observation up to 11 weeks
  effect on tumors (FIG. 2): reduction of the tumors until completely tumor free by five weeks and remained in force until 11 weeks

## CCC(=O)OCCNc1c2ccccc2nc2c(C)ccc([N+](=O)[O-])c12 [9-(2′-propionoxyethylamino)-4-methyl-1-nitroacridine]
[1]
  Optimal dose: 8 mg/kg
  Antitumor activity against Walker256 (Survival) Test/Control: 214%

## COc1ccc([N+](=O)[O-])c2c(NCCO)c3ccccc3nc12 [9-(2′-hydroxyethylamino)-4-methoxy-1-nitroacridine]
[1]
  Optimal dose: 16 mg/kg
  Antitumor activity against Walker256 (Survival) Test/Control: 200%

## COc1ccc2nc3cccc([N+](=O)[O-])c3c(NCCCO)c2c1 [9-(3′-hydroxypropylamino)-7-methoxy-1-nitroacridine]
[1]
  Optimal dose: 0.5 mg/kg
  Antitumor activity against Walker256 (Survival) Test/Control: 182% and 229%

## COc1ccc2nc3cccc([N+](=O)[O-])c3c(NCCCCO)c2c1 [9-(4′-hydroxybutylamino)-7-methoxy-1-nitroacridine]
[1]
  Optimal dose: 2 mg/kg
  Antitumor activity against Walker256 (Survival) Test/Control: 157%

## COc1ccc([N+](=O)[O-])c2c(NCCCCO)c3ccccc3nc12 [9-(4′-hydroxybutylamino)-4-methoxy-1-nitroacridine]
[1]
  Optimal dose: 32 mg/kg
  Antitumor activity against Walker256 (Survival) Test/Control: 200%

## CCC(=O)OC(C)CNc1c2ccccc2nc2c(C)ccc([N+](=O)[O-])c12 (stereo not drawn) [9-(2′-propionoxypropylamino)-4-methyl-1-nitroacridine]
[1]
  Optimal dose: 8 mg/kg
  Antitumor activity against Walker256 (Survival) Test/Control: 257%

## COc1ccc2nc3c(C)ccc([N+](=O)[O-])c3c(NCCOC(C)=O)c2c1 [9-(2′-acetoxyethylamino)-7-methoxy-4-methyl-1-nitroacridine]
[1]
  Optimal dose: 25 mg/kg
  Antitumor activity against Walker256 (Survival) Test/Control: 133%

## CCCCOCCNc1c2ccccc2nc2c(C)ccc([N+](=O)[O-])c12 [9-(2′-butyloxyethylamino)-4-methyl-1-nitroacridine]
[1]
  Optimal dose: 8 mg/kg
  Antitumor activity against Walker256 (Survival) Test/Control: 217%

## COc1ccc([N+](=O)[O-])c2c(NCCCO)c3ccccc3nc12 [9-(3′-hydroxypropylamino)-4-methoxy-1-nitroacridine]
[1]
  Optimal dose: 2 mg/kg
  Antitumor activity against Walker256 (Survival) Test/Control: 157%

## O=[N+]([O-])c1cccc2nc3ccccc3c(NCCO)c12 [1-nitro-9-hydroxyethylaminoacridine, reference compound]
[2]; 0.6 mg/Kg body weight i.p. twice a week for three weeks (FIG. 1 legend says 0.8 mg/Kg)
  reduction of tumors: 50%

## CC(=O)OCCNc1c2ccccc2nc2c(C)ccc([N+](=O)[O-])c12 [9-(2′-acetoxyethylamino)-4-methyl-1-nitroacridine]
[1]
  Optimal dose: 8 mg/kg
  Antitumor activity against Walker256 (Survival) Test/Control: 233%

## COc1ccc2nc3c(C)ccc([N+](=O)[O-])c3c(NCCO)c2c1 [9-(2′-hydroxyethylamino)-7-methoxy-4-methyl-1-nitroacridine]
[1]
  Optimal dose: 16 mg/kg
  Antitumor activity against Walker256 (Survival) Test/Control: 233%

## COc1ccc2nc3cccc([N+](=O)[O-])c3c(NCCO)c2c1 [9-(2′-hydroxyethylamino)-7-methoxy-1-nitroacridine]
[1]
  Optimal dose: 2 mg/kg
  Antitumor activity against Walker256 (Survival) Test/Control: 150% and 200%

## CC(=O)OCCNc1c2ccccc2nc2cccc([N+](=O)[O-])c12 [9-(2′-acetoxyethylamino)-1-nitroacridine]
[1]
  Optimal dose: 1 mg/kg
  Antitumor activity against Walker256 (Survival) Test/Control: 167%

## O=C1c2c(O)ccc(O)c2C(=O)c2c(NCCNCCO)ccc(NCCNCCO)c21 [mitoxantrone, reference compound]
[3]; 0.6 mg/kg twice weekly for three weeks from day 7
  effect on tumors (FIG. 2): showed a reduction till three weeks and the tumors started growing eight weeks after withdrawal of therapy

## COc1ccc2nc3c(C)ccc([N+](=O)[O-])c3c(NCCCO)c2c1 [9-(3′-hydroxypropylamino)-7-methoxy-4-methyl-1-nitroacridine]
[1]
  Optimal dose: 16 mg/kg
  Antitumor activity against Walker256 (Survival) Test/Control: 183%

## COc1ccc2nc3c(C)ccc([N+](=O)[O-])c3c(NCCCOC(C)=O)c2c1 [9-(3′-acetoxypropylamino)-7-methoxy-4-methyl-1-nitroacridine]
[1]
  Optimal dose: 16 mg/kg
  Antitumor activity against Walker256 (Survival) Test/Control: 217%

## CC(=O)OCCCNc1c2ccccc2nc2c(C)ccc([N+](=O)[O-])c12 [9-(3′-acetoxypropylamino)-4-methyl-1-nitroacridine]
[1]
  Optimal dose: 8 mg/kg
  Antitumor activity against Walker256 (Survival) Test/Control: 157%

## CCC(=O)OCCNc1c2ccccc2nc2cccc([N+](=O)[O-])c12 [9-(2′-propionoxyethylamino)-1-nitroacridine]
[1]
  Optimal dose: 1 mg/kg
  Antitumor activity against Walker256 (Survival) Test/Control: 200%

## Cc1ccc([N+](=O)[O-])c2c(NCCCO)c3ccccc3nc12 [9-(3′-hydroxypropylamino)-4-methyl-1-nitroacridine]
[1]
  Optimal dose: 2 mg/kg
  Antitumor activity against Walker256 (Survival) Test/Control: 233%
